Data taken from article PMC9647539, “Computational and functional studies of the PI(4,5)P2 binding site of the TRPM3 ion channel reveal interactions with other regulators” (The Journal of Biological Chemistry, 2022).
One block for each compound: values may come before it.

What was measured:
[1] = molecular target: T1, hTRPM3 or its mutant N991A (Homo sapiens, UniProt Q9HCF6, N1016A); assay: Excised inside-out patch clamp, relative effect of PI(4)P compared to PI(4,5)P2; format: cell-based; details: 25 μM diC8 PI(4)P vs 25 μM diC8 PI(4,5)P2, 100 μM PregS in pipette
T1 construct: expressed in transfected cells; host or cells: Xenopus laevis oocytes (excised inside-out patches)
T1 sequence (Q9HCF6 1-1325 isoform Q9HCF6-10 N991A): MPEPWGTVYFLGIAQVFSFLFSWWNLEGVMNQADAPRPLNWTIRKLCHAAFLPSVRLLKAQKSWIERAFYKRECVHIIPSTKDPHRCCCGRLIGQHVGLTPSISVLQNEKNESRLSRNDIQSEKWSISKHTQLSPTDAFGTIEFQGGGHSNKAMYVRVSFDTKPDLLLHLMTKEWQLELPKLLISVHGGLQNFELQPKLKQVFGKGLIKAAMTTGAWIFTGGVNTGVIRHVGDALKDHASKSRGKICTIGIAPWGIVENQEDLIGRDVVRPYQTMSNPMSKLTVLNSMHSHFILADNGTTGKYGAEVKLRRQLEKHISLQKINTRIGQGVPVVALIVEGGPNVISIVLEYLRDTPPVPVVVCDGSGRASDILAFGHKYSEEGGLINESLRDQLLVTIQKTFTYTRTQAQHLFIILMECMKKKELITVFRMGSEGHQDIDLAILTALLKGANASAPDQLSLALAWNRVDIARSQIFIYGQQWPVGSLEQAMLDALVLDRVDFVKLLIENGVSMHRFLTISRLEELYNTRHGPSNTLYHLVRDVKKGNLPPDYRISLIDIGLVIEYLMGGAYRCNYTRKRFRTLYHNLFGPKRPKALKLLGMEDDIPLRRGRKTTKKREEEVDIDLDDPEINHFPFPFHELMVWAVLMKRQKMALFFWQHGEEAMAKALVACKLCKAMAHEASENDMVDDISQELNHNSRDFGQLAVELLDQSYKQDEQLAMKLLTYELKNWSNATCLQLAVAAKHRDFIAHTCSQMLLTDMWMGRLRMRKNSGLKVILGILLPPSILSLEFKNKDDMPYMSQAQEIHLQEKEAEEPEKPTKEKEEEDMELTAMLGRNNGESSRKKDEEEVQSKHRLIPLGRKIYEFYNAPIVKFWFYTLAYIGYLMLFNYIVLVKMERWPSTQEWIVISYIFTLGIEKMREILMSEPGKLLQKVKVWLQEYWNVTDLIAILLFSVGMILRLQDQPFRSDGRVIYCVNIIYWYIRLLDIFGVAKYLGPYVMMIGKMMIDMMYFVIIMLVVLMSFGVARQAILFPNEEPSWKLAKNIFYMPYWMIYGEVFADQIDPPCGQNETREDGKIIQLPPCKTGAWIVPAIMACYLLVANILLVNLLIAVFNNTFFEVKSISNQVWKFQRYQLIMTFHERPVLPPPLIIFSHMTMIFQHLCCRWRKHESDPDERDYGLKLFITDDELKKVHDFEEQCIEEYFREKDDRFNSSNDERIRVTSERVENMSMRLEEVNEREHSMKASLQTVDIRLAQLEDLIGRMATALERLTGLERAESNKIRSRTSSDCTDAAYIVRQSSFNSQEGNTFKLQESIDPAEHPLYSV
Protocol: Oocytes were placed in a recording chamber filled with bath solution, which contained 97 mM KCl, 5 mM EGTA, 10 mM Hepes, pH 7.4. Before starting measurements, the vitelline layer was carefully removed with forceps without damaging the oocyte. Then a giga-ohm seal was formed using a borosilicate glass pipette (World Precision Instruments) with resistance from 0.8 to 1 MΩ. The pipette was filled with a solution containing 97 mM NaCl, 2 mM KCl, 1 mM MgCl2, 5 mM Hepes, and 100 μM PregS at pH 7.4. Currents were measured by an Axopatch 200B amplifier and analyzed with the pClamp 9.0 software. Compounds were dissolved in the bath solution and delivered to the inner side of cell membrane by a custom-made gravity-driven perfusion system. Either 25 μM PI(4,5)P2, 25 μM PI(4)P, or 10 μM AASt PI(4,5)P2 was applied in these experiments to reactivate TRPM3. At the end of every recording, 30 μg/ml Poly-Lys (Poly-K) was applied.

Rat TRPM8 or its mutants [2] = assay: Menthol concentration dependence, TEVC in Xenopus oocytes; format: cell-based; details: 100 mV; R851A and W682Q mutants
Protocol: (§1) To express exogenous proteins, RNA was microinjected into oocytes using a nanoliter-injector system (Warner Instruments). RNA was in vitro transcribed from the linearized pGEMSH vectors, which contained the complementary DNA clones for hTRPM3 ([38]) rat TRPM8, human M2 muscarinic (hM2) receptor, or Gβγ subunits by using the mMessage mMachine T7 Transcription Kit (Thermo Fisher Scientific). […] For coexpression of TRPM3 constructs and Gβ1γ2 subunits, 40 ng of TRPM3 was coinjected with 5 ng Gβ1 and 5 ng Gγ2. In the case of coexpressing TRPM3 and hM2 receptors, these two were injected at 1:1 ratio, 40 ng each. […]
(§2) Oocytes were placed in extracellular solution, which contained 97 mM NaCl, 2 mM KCl, 1 mM MgCl2, and 5 mM Hepes, pH 7.4. Currents were measured with a protocol consisting a voltage step from the 0 mV holding potential to −100 mV, followed by a ramp to 100 mV once every 0.5 s with a GeneClamp 500B amplifier and analyzed with the pClamp 9.0 software (Molecular Devices). Currents were recorded by thin wall glass pipettes that contained inner filament and were filled with 1% agarose in 3 M KCl. […] For wortmannin experiments specifically, PregS, or menthol-induced currents were measured, then the same oocyte was incubated with 35 μM wortmannin for 2 h, and currents were measured again using the same protocol. […]

[3] = system: mouse TRPM3α2 (mTRPM3α2) or its mutant N993A; assay: Whole-cell patch clamp with rapamycin-inducible pseudojanin phosphatase in HEK293 cells; format: cell-based; details: 100 nM rapamycin
Protocol: Human embryonic kidney 293 cells were purchased from American Type Culture Collection (catalog number: CRL-1573). Human embryonic kidney 293 cells were cultured in minimum essential medium supplemented with 10% fetal bovine serum and 100 IU/ml penicillin plus 100 μg/ml streptomycin. Cells were incubated in 5% CO2 at 37 °C. Cells were tested to confirm that they were not infected by mycoplasma. Cells were used up to 25 passages and then discarded. Cells were transiently transfected with complementary DNA encoding different TRPM3 constructs (200–400 ng) using the Effectene reagent (Qiagen). mTRPM3α2 and its mutant were cloned into the bicistronic pCAGGS/IRES-GFP vector. The components of rapamycin-inducible pseudojanin phosphatases ([40]) were cotransfected with mTRPM3α2 at 1:1 ratio.
After 24 h of transfection, cells were plated on poly-D-lysine–coated 12 mm cover slips. Experiments were performed 48 to 72 h after transfection. […] After formation of gigaohm-resistance seals, the whole cell configuration was established, and currents were recorded by applying a ramp protocol once every 1 s. […] Data were collected and analyzed with the pClamp10.6 (Clampex) acquisition software (Molecular Devices) and further analyzed and plotted with Prism 9 (GraphPad by Dotmatics). […]

[4] = system: Human TRPM3_1325 splice variant or its mutants; parameters: method as in PMID 26123195; details: 35 nM wortmannin (selectively inhibits PI3K); cited from earlier work
[5] = system: Human TRPM3_1325 splice variant or its mutants; assay: Wortmannin inhibition of PregS-induced currents (PI(4,5)P2 depletion), TEVC in Xenopus oocytes; format: cell-based; details: 35 μM wortmannin 2 h; for inhibition of PregS-induced currents after wortmannin treatment, compared with WT TRPM3: 100 mV; for inhibition of PregS-induced currents after wortmannin treatment, WT vs disease mutants: V990M and P1090Q
Protocol: Next, we mutated the predicted PI(4,5)P2-interacting residues in TRPM3 and tested the effects of the mutations on sensitivity to inhibition by decreasing PI(4,5)P2 levels. We expressed the WT and mutant channels in Xenopus oocytes and performed two-electrode voltage clamp (TEVC) experiments. We stimulated channel activity with 50 μM PregS and measured current amplitudes, then incubated the oocytes with 35 μM wortmannin for 2 h, and measured PregS-induced currents in the same oocytes (Fig. 3, A and B). Wortmannin at this concentration inhibits phosphatidylinositol 4-kinases and has been used to inhibit the activity of PI(4,5)P2-dependent ion channels ([39]). […] Mutating a PI(4,5)P2-interacting residue is expected to increase inhibition by high concentrations of wortmannin ([39]). […] We also generated two additional mutations in the TRP domain in residues that are not in contact with PI(4,5)P2, K1128Q and R1141Q.
To express exogenous proteins, RNA was microinjected into oocytes using a nanoliter-injector system (Warner Instruments). RNA was in vitro transcribed from the linearized pGEMSH vectors, which contained the complementary DNA clones for hTRPM3 ([38]) rat TRPM8, human M2 muscarinic (hM2) receptor, or Gβγ subunits by using the mMessage mMachine T7 Transcription Kit (Thermo Fisher Scientific). […] For coexpression of TRPM3 constructs and Gβ1γ2 subunits, 40 ng of TRPM3 was coinjected with 5 ng Gβ1 and 5 ng Gγ2. In the case of coexpressing TRPM3 and hM2 receptors, these two were injected at 1:1 ratio, 40 ng each. Oocytes were used for electrophysiological experiments after 48 to 72 h incubation at 16 °C after RNA injection.
Oocytes were placed in extracellular solution, which contained 97 mM NaCl, 2 mM KCl, 1 mM MgCl2, and 5 mM Hepes, pH 7.4. Currents were measured with a protocol consisting a voltage step from the 0 mV holding potential to −100 mV, followed by a ramp to 100 mV once every 0.5 s with a GeneClamp 500B amplifier and analyzed with the pClamp 9.0 software (Molecular Devices). Currents were recorded by thin wall glass pipettes that contained inner filament and were filled with 1% agarose in 3 M KCl. In all TEVC experiments, different concentrations of PregS were applied to activate TRPM3 channels, and various concentrations of menthol were used to trigger responses of TRPM8 channels. The hM2 receptor was activated by 5 μM acetylcholine. For wortmannin experiments specifically, PregS, or menthol-induced currents were measured, then the same oocyte was incubated with 35 μM wortmannin for 2 h, and currents were measured again using the same protocol. In the bar graphs in Figure 3, the individual panels show experiments that were performed on the same day.

Rat TRPM8 or its mutants [6] = assay: Wortmannin inhibition of menthol-induced currents (PI(4,5)P2 depletion), TEVC in Xenopus oocytes; format: cell-based; details: 35 μM wortmannin 2 h; 500 μM menthol; 100 mV; R851Q and W682Q mutants
Protocol: as §1, §2

[7] = system: TRPM3_1325 splice variant or its mutants; assay: PregS concentration dependence, TEVC in Xenopus oocytes; format: cell-based, human; details: 100 mV; N991A and K992A mutants
Protocol: as §1, §2

hTRPM3 = system: hTRPM3; parameters: method as in PMID 32343227; details: hTRPM3 WT; read-out: EC50 concentration of PregS; cited from earlier work
hTRPM3 V990M = system: hTRPM3 V990M; parameters: method as in PMID 32343227; details: V990M mutant; read-out: EC50 concentration of PregS; cited from earlier work
hTRPM3 P1090Q = system: hTRPM3 P1090Q; parameters: method as in PMID 32343227; details: P1090Q mutant; read-out: EC50 concentration of PregS; cited from earlier work

- relative effect of PI(4)P compared with PI(4,5)P2 [1]: did not change
Compound: CCCCCCCC(=O)OC[C@H](COP(=O)(O)O[C@H]1[C@H](O)[C@@H](O)[C@H](OP(=O)(O)O)[C@@H](O)[C@H]1O)OC(=O)CCCCCCC [PI(4)P]

Compound: CC1CCC(C(C)C)C(O)C1 (centres unmarked) [menthol]
- menthol dose response, compared with WT TRPM8 (Rat TRPM8 or its mutants [2]): right shifted

Compound: CO[C@H]1C[C@@H]2CC[C@@H](C)[C@@](O)(O2)C(=O)C(=O)N2CCCC[C@H]2C(=O)O[C@H]([C@H](C)C[C@@H]2CC[C@@H](O)[C@H](OC)C2)CC(=O)[C@H](C)/C=C(\C)[C@@H](O)[C@@H](OC)C(=O)[C@H](C)C[C@H](C)/C=C/C=C/C=C/1C [rapamycin]
- inhibition by rapamycin (PI(4,5)P2 depletion), N993A compared with WT mTRPM3α2 ([3]; currents induced by 25 μM PregS plus 10 μM clotrimazole): significantly larger inhibition
- inhibition by rapamycin (PI(4,5)P2 depletion), N993A compared with WT mTRPM3α2 ([3]; currents stimulated with 25 μM PregS): significantly higher inhibition

Compound: COC[C@H]1OC(=O)c2coc3c2[C@@]1(C)C1=C(C3=O)[C@@H]2CCC(=O)[C@@]2(C)C[C@H]1OC(C)=O [wortmannin]
- inhibition of TRPM3 by wortmannin [4]: did not inhibit TRPM3
- inhibition of PregS-induced currents after wortmannin treatment, compared with WT TRPM3 ([5]; 50 μM PregS, R1141Q mutant): small but significant increase
- inhibition of PregS-induced currents after wortmannin treatment, compared with WT TRPM3 ([5]; 50 μM PregS, mutants W761F, N991A, K992A and R1131Q): significantly higher inhibition
- inhibition of PregS-induced currents after wortmannin treatment, WT vs disease mutants ([5]; 50 μM PregS): inhibited to a similar extent
- inhibition of PregS-induced currents after wortmannin treatment, WT vs disease mutants ([5]; PregS at respective EC50 (17, 0.6, 7 μM)): inhibited to a similar extent to WT channels
- inhibition of menthol-induced currents by wortmannin, compared with WT TRPM8 (Rat TRPM8 or its mutants [6]): significantly higher level of inhibition

Compound: pregnenolone sulfate [PregS]
- PregS dose response, compared with WT TRPM3 [7]: shifted the PregS dose response to the right
- EC50 (hTRPM3): 17 µM
- EC50 (hTRPM3 V990M): 0.6 µM
- EC50 (hTRPM3 P1090Q): 7 µM
